According to US20250082647A1, “SPECIFIC DOSAGE OF PHENOTHIAZINE COMPOUNDS FOR USE IN TREATMENT OR PREVENTION OF ALZHEIMER'S DEMENTIA” (IMMUNGENETICS AG, priority 2022, published 2025):

Tested on: plasma Abeta1-40
Test: Plasma Abeta1-40 in human subjects after oral thiethylperazine (INNO-BIA plasma Abeta forms immunoassay)
Format: in vivo
Details: for average increase in plasma Abeta1-40: day 1; for subjects with an increase of plasma Abeta1-40: oral
Experimental: Samples of 10 ml venous blood were collected in standardized test tubes containing ethylene diamine tetraacetic acid (EDTA) and gently shaken 1-2 times. As soon as possible (within max. 30 min.) samples were centrifuged at 1600 g, room temperature for 10 min. Plasma was aliquoted into 6 portions of 0.5 ml. All aliquots were frozen into a deep freezer (-80° C.) within 10 min after the centrifugation and stored until use. Abeta measurements were performed using the bead-based INNO-BIA plasma Abeta forms immunoassay (Innogenetics/Fujirebio Europe, Gent, Belgium) according to the manufacturer's protocol. Plasma samples and all other kit reagents were prepared according to the manufacturer's protocol. In brief, plasma samples were thawed at room temperature, centrifuged at 4000 g for 10 min to remove any possible debris, vortexed and then diluted 3-fold using Plasma Diluent. After transferring into the filter plate diluted samples, controls and standards were washed and incubated shaking overnight at 4° C. after the addition of the first conjugate. On the next day, all wells were washed 3 times and incubated with detection conjugate for 1 h at room temperature. After another 3 times washing, reading solution was added to all wells and the measurements were performed on a Luminex IS 100 (Luminex Corporation, Austin, TX, USA) platform after 2 minutes of shaking. Luminex instrument settings used were: gate-7500 to 15000, sample volume-50 μL and counts per region-100 beads. Standard curve calculation was performed using Stata 14.2 (StataCorp, College Station, TX, USA) employing a four-parametric logistic fit (nl log4 command). All standards, controls, and the patients' samples were analyzed in duplicates; all samples from a given individual were assayed in one analytical run. The duplicate-averaged concentrations (in pg/ml) of the two biomarkers (Abeta1-40 and Abeta1-42) were calculated. In all eight standard-curves fitting models (4 runs×2 biomarkers), adjusted R-squared statistics were higher than 0.995, which speaks for excellent curve fitting quality. Herein below, thiethylperazine was used as thiethylperazine maleate, wherein the weight-based amounts [in mg] are indicated with respect to thiethylperazine; the weight-based amounts of thiethylperazine maleate [in mg] are indicated in parenthesis. […] On day 1 (t=0 h), blood samples were taken from all subjects. […] Plasma Abeta was considered an indicator of brain Abeta content and Abeta export with higher plasma Abeta concentrations indicating higher Abeta clearance from the brain (Ferrero, Williams et al. 2016, […], Chiao et al. 2016).

CCSc1ccc2c(c1)N(CCCN1CCN(C)CC1)c1ccccc1S2 [thiethylperazine, 2-(ethylsulfanyl)-10-[3-(4-methylpiperazin-1-yl)propyl]-10H-phenothiazine]
mean plasma Abeta1-40 concentration difference between responders and non-responders (6.5 mg thiethylperazine): 33.04 pg/mL
average increase in plasma Abeta1-40 (6.5 mg thiethylperazine): 7.8%
mean plasma Abeta1-40 concentration difference between responders and non-responders (13 mg thiethylperazine): 28.07 pg/mL
average increase in plasma Abeta1-40 (13 mg thiethylperazine): 7.8%
subjects with an increase of plasma Abeta1-40 (26 mg thiethylperazine (41.12 mg maleate) per day over three consecutive days, steady state, 15 subjects (comparative)): 40%
average change of plasma Abeta1-40 (26 mg thiethylperazine per day over three consecutive days, steady state): 6.5%
mean plasma Abeta1-40 concentration difference between responders and non-responders (26 mg thiethylperazine, steady state): 16.53 pg/mL
subjects with an increase of plasma Abeta1-40 (after second administration on day 1, dose of 13 mg thiethylperazine (20.56 mg maleate), 15 subjects): 87%
subjects with an increase of plasma Abeta1-40 (initial dose of 6.5 mg thiethylperazine (10.28 mg maleate), day 1, blood four hours after administration, 15 subjects): 53%
average increase in plasma Abeta1-40 higher compared to higher dose (lower dose 2-20 mg (6.5 mg and 13 mg) versus 26 mg): ≥ 20%
